# Molecular target: T1, CYP1A2 (Homo sapiens, UniProt P05177)
# T1 construct: from tissue; host or cells: ultrapooled human liver microsomes
# T1 sequence (P05177 1-516): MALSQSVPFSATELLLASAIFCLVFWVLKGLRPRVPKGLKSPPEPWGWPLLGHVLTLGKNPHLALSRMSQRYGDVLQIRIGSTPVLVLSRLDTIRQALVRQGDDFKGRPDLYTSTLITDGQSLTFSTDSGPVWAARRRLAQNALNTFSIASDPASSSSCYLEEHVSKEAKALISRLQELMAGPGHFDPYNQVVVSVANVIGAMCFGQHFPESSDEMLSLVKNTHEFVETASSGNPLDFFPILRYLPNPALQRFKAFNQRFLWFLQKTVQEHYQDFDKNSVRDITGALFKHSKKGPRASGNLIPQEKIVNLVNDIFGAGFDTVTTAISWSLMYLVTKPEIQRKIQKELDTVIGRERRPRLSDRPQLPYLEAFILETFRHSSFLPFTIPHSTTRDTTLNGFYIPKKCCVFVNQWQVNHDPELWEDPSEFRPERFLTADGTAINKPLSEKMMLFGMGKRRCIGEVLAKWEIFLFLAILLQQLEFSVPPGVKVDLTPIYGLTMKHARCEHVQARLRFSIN
# Assay: CYP1A2-mediated phenacetin O-deethylation in pooled human liver microsomes
# Format: in vitro ADME
# Settings: up to 50 µM, without 30-min preincubation
# Experimental: The inhibitory potential (IC50 values) of EAM-2201 on CYP1A2, CYP2A6, CYP2C8, CYP2C9, CYP2C19, CYP2D6 and CYP3A4 were evaluated using ultrapooled human liver microsomes and a cocktail of seven CYP substrates followed by LC-tandem mass spectrometry (LC-MS/MS) as previously described. […] Aliquots (5 µL) of the diluted supernatants were analyzed using LC-MS/MS. […]
# The metabolites formed from CYP substrates were simultaneously quantified using our previously described LC-MS/MS method. […] Quantification was performed by selected reaction monitoring (SRM) of the [M + H]^+ ion and the related product ion for each metabolite: acetaminophen, 152.1 > 110.3; N-desethylamodiaquine, 328.1 > 283.0; 7-hydroxycoumarin, 163.0 > 107.2; 4-hydroxybupropion, 256.1 > 238.0; 4′-hydroxydiclofenac, 312.0 > 231.1; 4′-hydroxy-mephenytoin, 235.1 > 150.1; 1′-hydroxybufuralol, 278.1 > 186.1; 1′-hydroxymidazolam, 341.9 > 324.0; ^13C2,^15N-acetaminophen, 155.1 > 111.2; and d9-1′-hydroxybufuralol, 287.2 > 187.0. […]
compound,measurement,value
"CCc1ccc(C(=O)c2cn(CCCCCF)c3ccccc23)c2ccccc12 [EAM-2201, (4-ethyl-1-naphthalenyl)[1-(5-fluoropentyl)-1H-indol-3-yl]-methanone]",inhibition of CYP1A2-mediated phenacetin O-deethylation,negligibly inhibited
